# Results taken from doi:10.1101/2024.08.25.609621 (bioRxiv, 2024).
# Where two headings read alike, the source gives them in different places.
# Biological target: SARS-CoV-2 NSP3 macrodomain (Mac1), P43 crystal form (Severe acute respiratory syndrome coronavirus 2, UniProt P0DTD1)
# Assay type: binding
# Conditions: for 1-BDC: PanDDA background density correction; for X-ray crystal structure: X-ray crystal structure determined (TRUE); for Total number of conformations: ligand conformations modeled in Mac1 crystal structure; for 2*(1-BDC) (%): occupancy estimate from PanDDA 1-BDC; for Binding site: site of ligand in X-ray crystal structure; for X-ray crystallography: Binding site: site where the ligand is bound in the X-ray crystal structure
# [1] = crystal soak 10 mM, P43 crystals
# [2] = crystal soak, soak concentration 10 mM
# [3] = crystal soak, soak concentration 10 mM, TRUE = ligand hit
SMILES,1-BDC,X-ray crystal structure,Total number of conformations,2*(1-BDC) (%),Binding site,"Pandda run, overall: Modeled [2]","Pandda run, overall: Hit [3]",X-ray crystallography: Binding site,"PanDDA run, DMSO background map: 1-BDC (soak concentration 10 mM)","PanDDA run, DMSO background map: Hit (soak concentration 10 mM)",other results
O=C(O)C(F)(F)F.OCC(Nc1ncnc2[nH]ccc12)C(O)C1CCCCC1 (stereo not drawn) [AVI-3687],–,–,–,–,–,–,–,–,–,–,"Pandda run, overall: Hit [1]: TRUE; Pandda run, overall: Modeling comment [1]: Weak density, not modeled; PanDDA run, DMSO background map: 1-BDC (crystal soak 10 mM): 0.15; PanDDA run, DMSO background map: Hit (crystal soak 10 mM): TRUE; PanDDA run, TFA/DMSO background map: 1-BDC (crystal soak 10 mM): 0.08; PanDDA run, TFA/DMSO background map: Hit (crystal soak 10 mM): TRUE"
O=C(O)C(F)(F)F.OCC1(Nc2ncnc3[nH]ccc23)CC1 [AVI-3688],0.2,TRUE,1,40,Adenosine,–,–,–,–,–,"Pandda run, overall: Hit [1]: TRUE; Pandda run, overall: Modeled [1]: TRUE; PanDDA run, DMSO background map: 1-BDC (crystal soak 10 mM): 0.2; PanDDA run, DMSO background map: Hit (crystal soak 10 mM): TRUE"
OCC(CC1CCCCC1)Nc1ncnc2[nH]ccc12 (stereo not drawn) [AVI-3690],0.12,TRUE,1,24,Adenosine,–,–,–,–,–,"Pandda run, overall: Hit [1]: TRUE; Pandda run, overall: Modeled [1]: TRUE; Pandda run, overall: Modeling comment [1]: Weak density for alternative ligand conformation; PanDDA run, DMSO background map: 1-BDC (crystal soak 10 mM): 0.12; PanDDA run, DMSO background map: Hit (crystal soak 10 mM): TRUE"
OCC(CC1CCCC1)Nc1ncnc2[nH]ccc12 (stereo not drawn) [AVI-3691],0.18,TRUE,1,36,Adenosine,–,–,–,–,–,"Pandda run, overall: Hit [1]: TRUE; Pandda run, overall: Modeled [1]: TRUE; PanDDA run, DMSO background map: 1-BDC (crystal soak 10 mM): 0.18; PanDDA run, DMSO background map: Hit (crystal soak 10 mM): TRUE"
OCC(Nc1ncnc2[nH]ccc12)C1CCc2ccccc21 (stereo not drawn) [AVI-3693],0.22,TRUE,2,44,Adenosine,–,–,–,–,–,"Pandda run, overall: Hit [1]: TRUE; Pandda run, overall: Modeled [1]: TRUE; PanDDA run, DMSO background map: 1-BDC (crystal soak 10 mM): 0.22; PanDDA run, DMSO background map: Hit (crystal soak 10 mM): TRUE"
OCC(Cc1ccccn1)Nc1ncnc2[nH]ccc12 (stereo not drawn) [AVI-3696],0.13,TRUE,2,26,Adenosine,–,–,–,–,–,"Pandda run, overall: Hit [1]: TRUE; Pandda run, overall: Modeled [1]: TRUE; PanDDA run, DMSO background map: 1-BDC (crystal soak 10 mM): 0.13; PanDDA run, DMSO background map: Hit (crystal soak 10 mM): TRUE"
OCC(O)C1CCCN1c1ncnc2[nH]ccc12 (stereo not drawn) [AVI-3701],0.18,–,1,36,–,TRUE,TRUE,Adenosine,0.18,TRUE,–
O=C(O)C(F)(F)F.OC[C@H]1CC2(CN1c1ncnc3[nH]ccc13)OCCO2 [AVI-3702],0.21,–,1,42,–,TRUE,TRUE,Adenosine,0.21,TRUE,–
OCC(Cc1cncs1)Nc1ncnc2[nH]ccc12 (stereo not drawn) [AVI-3703],0.15,TRUE,1,30,Adenosine,TRUE,TRUE,–,0.15,TRUE,–
OCC(Cc1ccoc1)Nc1ncnc2[nH]ccc12 (stereo not drawn) [AVI-3705],0.21,TRUE,1,42,Adenosine,TRUE,TRUE,–,0.21,TRUE,–
O=C(O)C(F)(F)F.OCC(Cc1cccc(F)c1)Nc1ncnc2[nH]ccc12 (stereo not drawn) [AVI-3706],–,–,–,–,–,–,–,–,–,–,"Pandda run, overall: Modeling comment [2]: TFA only"
OCC1CC2(CCOCC2)CN1c1ncnc2[nH]ccc12 (stereo not drawn) [AVI-3707],0.21,–,1,42,–,TRUE,TRUE,Adenosine,0.21,TRUE,"Pandda run, overall: Modeling comment [2]: Distal site, weak density, not modeled"
OCC(COCc1ccccc1)Nc1ncnc2[nH]ccc12 (stereo not drawn) [AVI-3709],0.19,TRUE,2,38,Adenosine,TRUE,TRUE,–,0.19,TRUE,–
O=C(O)C(F)(F)F.OC[C@@H]1CC2(CC2)CN1c1ncnc2[nH]ccc12 [AVI-3710],0.26,–,2,52,–,TRUE,TRUE,Adenosine,0.26,TRUE,"Pandda run, overall: Modeling comment [2]: Weak density for open state of Phe132 loop"
OCC(Cc1cccs1)Nc1ncnc2[nH]ccc12 (stereo not drawn) [AVI-3711],0.21,TRUE,1,42,Adenosine,TRUE,TRUE,–,0.21,TRUE,–
O=C(O)C(F)(F)F.OCC1C2C=CC(C2)N1c1ncnc2[nH]ccc12 (stereo not drawn) [AVI-3712],–,–,–,–,–,–,TRUE,–,0.15,TRUE,"Pandda run, overall: Modeling comment [2]: Weak density, not modeled; PanDDA run, TFA/DMSO background map: 1-BDC (soak concentration 10 mM): 0.05; PanDDA run, TFA/DMSO background map: Hit (soak concentration 10 mM): TRUE"
CC(C)(C)C(O)CC(CO)Nc1ncnc2[nH]ccc12.O=C(O)C(F)(F)F (stereo not drawn) [AVI-3714],–,–,–,–,–,–,–,–,–,–,"Pandda run, overall: Modeling comment [2]: TFA only"
OCC(Nc1ncnc2[nH]ccc12)c1ccccc1 (stereo not drawn) [AVI-3715],0.18,TRUE,1,36,Adenosine,TRUE,TRUE,–,0.18,TRUE,–
OCC1COCCN1c1ncnc2[nH]ccc12 (stereo not drawn) [AVI-3717],0.14,–,2,28,–,TRUE,TRUE,Adenosine,0.14,TRUE,–
CC(C)(C)C1CCC(CO)N(c2ncnc3[nH]ccc23)C1 (stereo not drawn) [AVI-3719],0.08,–,1,16,–,TRUE,TRUE,Adenosine,0.08,TRUE,Phe132 loop open state (TRUE = open state of Phe132 loop modeled): TRUE
CN1CCN(c2ncnc3[nH]ccc23)C(CO)C1 (stereo not drawn) [AVI-3721],0.06,–,2,12,–,TRUE,TRUE,Adenosine,0.06,TRUE,–
CC(C)(C)[C@@H]1CCN(c2ncnc3[nH]ccc23)[C@H](CO)C1 [AVI-3722],0.11,–,1,22,–,TRUE,TRUE,Adenosine,0.11,TRUE,–
CC1(C)CCC(CO)N(c2ncnc3[nH]ccc23)C1 (stereo not drawn) [AVI-3726],0.17,–,3,34,–,TRUE,TRUE,Adenosine,0.17,TRUE,–
OCC1CC2(CCCCC2)CN1c1ncnc2[nH]ccc12 (stereo not drawn) [AVI-3727],0.29,–,1,58,–,TRUE,TRUE,Adenosine,0.29,TRUE,"Pandda run, overall: Modeling comment [2]: Distal site, weak density, not modeled"
OCC1CC2(CCC2)CN1c1ncnc2[nH]ccc12 (stereo not drawn) [AVI-3728],0.24,–,2,48,–,TRUE,TRUE,Adenosine,0.24,TRUE,"Pandda run, overall: Modeling comment [2]: Distal site, weak density, not modeled"
C[C@@H](O)[C@H](CO)Nc1ncnc2[nH]ccc12.O=C(O)C(F)(F)F [AVI-3730],0.14,TRUE,1,28,Adenosine,TRUE,TRUE,–,0.14,TRUE,–
